The term inhibition denotes the change of the read-out against control, counted positive when it falls. By solubility is commonly meant the concentration that dissolves in the medium under given conditions.

Converted amounts (≈) assume the structure as drawn. The source made the active and inactive calls. The calls are words filed in the database; no cut-off is given here.

The target in data set [1] is Small conductance calcium-activated potassium channel protein 3 (Rattus norvegicus) (UniProt P70605). Nature of the data set: Inhibition of recombinant rat SK3 expressed in HEK293T cells assessed as decrease in channel current amplitude at 0 mV holding potential at 10 uM measured for 3 mins by patch clamp assay relative to control. Format: cell-based. To be noted: HEK-293T.
Chain of Small conductance calcium-activated potassium channel protein 3 (Rattus norvegicus) (P70605 whole entry): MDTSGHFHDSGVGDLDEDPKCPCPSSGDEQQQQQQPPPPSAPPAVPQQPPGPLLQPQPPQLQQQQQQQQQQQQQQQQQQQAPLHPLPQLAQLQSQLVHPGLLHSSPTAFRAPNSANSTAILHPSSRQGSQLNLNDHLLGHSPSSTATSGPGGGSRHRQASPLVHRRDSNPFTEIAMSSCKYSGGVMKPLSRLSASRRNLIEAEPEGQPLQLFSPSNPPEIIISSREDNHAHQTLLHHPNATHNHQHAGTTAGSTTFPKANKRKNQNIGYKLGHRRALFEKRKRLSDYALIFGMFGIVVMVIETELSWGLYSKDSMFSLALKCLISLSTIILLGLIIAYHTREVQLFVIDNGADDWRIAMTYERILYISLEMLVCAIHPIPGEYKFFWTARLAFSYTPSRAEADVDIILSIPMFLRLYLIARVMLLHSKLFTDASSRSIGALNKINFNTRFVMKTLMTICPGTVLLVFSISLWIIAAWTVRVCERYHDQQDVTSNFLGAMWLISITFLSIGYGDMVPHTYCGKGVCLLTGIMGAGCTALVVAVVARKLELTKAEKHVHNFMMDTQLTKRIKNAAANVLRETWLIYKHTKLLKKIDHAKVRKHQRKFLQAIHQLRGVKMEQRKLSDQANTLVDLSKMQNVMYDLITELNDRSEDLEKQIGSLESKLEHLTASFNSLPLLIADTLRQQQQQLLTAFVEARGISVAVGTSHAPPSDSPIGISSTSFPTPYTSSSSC

In data set [2] the test system is HEK-293T. The data set can be described thus: Effect on SK3 deficient HEK293T cell migration at 100 nM after 15 hrs by DAPI staining. Format: functional, cell-based. To be noted: Homo sapiens.
Data set [3] in a line: Solubility of the compound in water. The data set is classed as physicochemical.
Data set [4] deals with HEK-293T. The data set can be described thus: Cytotoxicity against HEK293T cells expressing rat SK3 assessed as cell viability at 10 uM after 48 hrs by MTT assay. The data set is classed as cell-based. To be noted: human. For orientation: Tetrazolium assays rely on reduction of a dye to a coloured formazan, in cell work by metabolically active cells.
For data set [5], the target named is Small conductance calcium-activated potassium channel protein 3 (Rattus norvegicus) (UniProt P70605). The data set can be described thus: Inhibition of recombinant rat SK3 expressed in HEK293T cells assessed as inhibition of cell migration at 100 nM after 15 hrs by DAPI staining. The data set is classed as cell-based. To be noted: HEK-293T.

`CCCCCCCCCCCCCCCCOCC(CO[C@H]1O[C@H](CO)[C@@H](O[C@@H]2O[C@H](CO)[C@H](O)[C@H](O)[C@H]2O)[C@H](O)[C@H]1O)OC` (some centres not stated): the inhibition in data set [1] worked out at 73.2%; in data set [5], 40%. Moreover, the result with HEK-293T [2] was inactive. The concentration in solution in data set [3] (solubility) was 9 µM (≈ 5.89 µg/mL). In addition, in the data set with HEK-293T [4], the Activity entry is given as “Non-toxic”.

Turning to `CCCCCCCCCCCCCCCCOCC(COP(=O)(O)OC1O[C@H](CO[C@H]2O[C@H](CO)[C@H](O)[C@H](O)[C@H]2O)[C@@H](O)[C@H](O)[C@H]1O)OC.CCN(CC)CC` (some centres not stated), the inhibition in data set [1] came out at 65.5%; in data set [5] it was 40%. For the same molecule, the result in the data set on HEK-293T [2] was inactive. Also, the Activity result in the data set with HEK-293T [4] is reported as “Non-toxic”.

With `CCCCCCCCCCCCCCCCOCC(COP(=O)(O)OC1O[C@H](CO)[C@@H](O[C@H]2O[C@H](CO)[C@@H](O)[C@H](O)[C@H]2O)[C@H](O)[C@H]1O)OC.CCN(CC)CC` (some centres not stated), the inhibition was determined as 60% in data set [1] and 40% in data set [5]. Besides, the outcome in the data set on HEK-293T [2] was inactive. In addition, in the data set on HEK-293T [4], the Activity entry is reported as “Non-toxic”.

Regarding `CCCCCCCCCCCCCCCCOCC(COP(=O)(O)OC1O[C@H](CO)[C@@H](O[C@@H]2O[C@H](CO)[C@H](O)[C@H](O)[C@H]2O)[C@H](O)[C@H]1O)OC.CCN(CC)CC` (some centres not stated), the inhibition in data set [1] stood at 69.2%; in data set [5], 40%. Moreover, the outcome with HEK-293T [2] was inactive. Besides, the solubility in data set [3] was found to be 16 µM. Further, the Activity entry in the data set with HEK-293T [4] is “Non-toxic”.

For `CCCCCCCCCCCCCCCCOCC(COP(=O)(O)O[C@H]1O[C@H](CO)[C@@H](O[C@H]2O[C@H](CO)[C@@H](O)[C@H](O)[C@H]2O)[C@H](O)[C@H]1O)OC.CCN(CC)CC` (some centres not stated), the inhibition in data set [1] was determined as 70.8%; in data set [5], 40%. In the data set on HEK-293T [2], the result was inactive. In the data set on HEK-293T [4], the Activity result is given as “Non-toxic”.

The values above are taken from ChEMBL document CHEMBL3217534, “Glyco-Phospho-Glycero Ether Lipids (GPGEL): synthesis and evaluation as small conductance Ca2+-activated K+ channel (SK3) inhibitors” (Medchemcomm, 2012).
